# Experimental data reported in patent publication US20070225213A1, “Nucleic acid carriers for delivery of therapeutic agents” (priority 2006, published 2007).
# Key:
# [1] = Column chromatography determination of drug loading limit of NAC-drug; format: physicochemical; details: Drug only (MTN, no carrier)
# Excerpt: In a dosage form suitable for parenteral administration, the nucleic acid can be combined with the drug in an aqueous formulation of saline, dextrose or other suitable aqueous vehicle suitable for administration. It is preferred that the drug and the nucleic acid are combined in water or other suitable medium, prior to dilution in saline or media, in order to prevent inhibition of drug binding to the nucleic acid. The dosage form can be sterilized by a variety of means, and can optionally take the form of a concentrate that can be diluted in saline or other suitable vehicle prior to injection. It is preferred to minimize the amount of free drug in the injectable solution, such that the mass ratio of nucleic acid to drug is sufficient to bind most of the drug, and to limit free drug in the bloodstream. […] The percentage loading possible for other nucleic acid binding drugs will vary depending on their binding characteristics, and can be determined by column chromatography, spectrophotometry, and cytotoxicity assay methods as described herein. […]
# Determination of drug loading limit of mitoxantrone (MTN) in a nucleic acid carrier (NAC) using a 2.5×9 cm G25 column (EX031904) and herring sperm DNA (HSDNA approx. range 10-100 bp Sigma-Aldrich). […] Collected 5 ml and checked absorbance scan of 0.2 ml sample on Synergy HT1. […] Collected 7.5 ml and read absorbance scan of 0.2 ml sample. […]
# COS7 = test: Effect of plating time on uptake of NAC-MTN and MTN, fluorescence (Example 11); format: cell-based, green monkey
# Experimental: The effect of plating time on the differential rates of uptake between NAC-MTN and MTN were assayed in cells treated <1 hour and 24 hours after plating.
# On day 1, MCF7, COS7, 3T3, and BHK21 cells were plated out in a standard tissue culture plate. After incubation of 20 minutes samples were added to cells in rows A, C, E, and G. Cells were incubated at 37C in a standard atmosphere of 5%CO2.
# On day 2, samples were added to rows D, F, and H and the fluorescence was obtained EX620/EM680 S=80. Samples were removed from A,C,E and G, replaced with media and fluorescence read again. On day 2 observed significant drug toxicity in cells of rows A,C, E, G. Sample addition was postponed in row B since MCF7 were not yet confluent.
# On day 3, added samples to cells in row B containing confluent MCF7's, removed samples from rows D, F, and H replaced with media and read fluorescence.
# Fluorescence data from cells taken after removal of media was used to quantitate total MTN retained in the cells. Fluorescence data were converted to mg/ml MTN using a standard curve prepared with free MTN or NAC-MTN.
# The percentage difference in fluorescence between cells treated with NAC-MTN or MTN alone was used to compare relative drug uptake.
# The MTN fluorescence ratios were obtained by dividing MTN fluorescence of cells incubated for 24 hours by fluorescence of cells incubated 30 minutes. […] The uptake in BHK21 was roughly equivalent for NAC-MTN regardless of plate adherence, however it should be noted that BHK21 adhere very rapidly to the plate.
# Fluorescence data were converted to micromolar drug concentrations (uM MTN) using a standard curve for either nucleic acid bound or unbound drug, and drug uptake ratios were obtained by dividing the t(24 hour)/t(30 min.). The ratios of absolute drug concentration per well show more dramatic differences in uptake as shown below.
smiles,measurement,setting,value
"O=C1c2c(O)ccc(O)c2C(=O)c2c(NCCNCCO)ccc(NCCNCCO)c21 [MTN, mitoxantrone]",G25 Column Results,[1],"Single band, slow"
same,MTN FLUOR Ratio of t(24)/t(<1),COS7,0.70
same,FLUOR (MTN fluorescence in cells),COS7; cells treated 24 hour after plating,15289
same,FLUOR (MTN fluorescence in cells),COS7; cells treated <1 hour after plating,13814
same,Ratio uM MTN of t(24)/t(<1),COS7; from standard curve for bound or unbound drug,1.2
